“Also recorded” adds a separate entry of the source. Where two headings read alike, the source gives them in different places.
How the values were obtained:
[1] = target: SARS-CoV-2 Spike S1 (RBD) (Severe acute respiratory syndrome coronavirus 2, UniProt P0DTC2); experiment: biochemical; assay type: binding
[2] = test system: SARS-CoV-2; assay type: cell-based
[3] = test system: SARS-CoV-2; experiment: SARS-CoV-2 viral load by RT-qPCR in Calu-3 supernatant; assay type: cell-based
[4] = test system: SARS-CoV-2-induced cytokine and chemokine production; assay type: cell-based; settings: Calu-3 cells; Cases A-C
[5] = test system: SARS-CoV-2; experiment: hamster model of SARS-CoV-2 infection, intranasally inhaled treatment; assay type: in vivo
[6] = test system: SARS-CoV-2; experiment: combination therapy, viral load by RT-PCR (ORF1ab gene) in Calu-3 cells; assay type: cell-based; parameters: key to enhanced decrease of viral load, combination vs two single agents: Each combination that showed an enhanced decrease of viral load as compared with the two single agents is denoted by “E”; Combinations that showed a slight trend towards an enhanced decrease of viral load as compared with the two single agents is denoted by “(e)”; —
[7] = test system: Calu-3 cells; settings: Calu-3 cells or Vero cells

SMILES: O=C([O-])C[C@H](O)C[C@H](O)/C=C/c1c(C2CC2)nc2ccccc2c1-c1ccc(F)cc1.O=C([O-])C[C@H](O)C[C@H](O)/C=C/c1c(C2CC2)nc2ccccc2c1-c1ccc(F)cc1.[Ca+2] [INS103, Pitavastatin Calcium]
- binding to SARS-COV-2 S-protein (in words) ([1]; MST binding assay): bind with SARS-COV-2 S-protein at nanomolar (nM) concentrations
- Kd ([1]; Table 1, MST, 25 nM labelled SARS-CoV-2 S1, read-out: Affinity): 678 to 1000 nM
- Remarks ([1]; Table 1, binding to SARS-CoV-2 S1): Good binding
- S/N ([1]; Table 1, signal to noise ratio of MST binding): 14.4-17.3
- Kd ([1]; Table 2, read-out: Affinity (nM) of binding to SARS-COV2 Spike protein): 678 to 1000 nM
- SARS-CoV-2-induced loss of cell viability in Calu-3 cells (overall conclusion) ([2]; Calu-3 cells): inhibited SARS-CoV-2-induced loss of cell viability
- protection against virus-induced loss of cell viability ([2]; Case A: compound added 1 h after infection, 72 h contact): dose-dependent protection
- Average (percent cell viability) ([2]; Case A: compound added 1 h after infection, 72 h contact, 0.2 uM): 4.83%
- Average (percent cell viability) ([2]; Case A: compound added 1 h after infection, 72 h contact, 1 uM): 9.66%
- Average (percent cell viability) ([2]; Case A: compound added 1 h after infection, 72 h contact, 5 uM): 17.37%
- Average (percent cell viability) ([2]; Case B: compound added 24 h after infection, 48 h contact, 0.2 uM): 0.5243%
- Average (percent cell viability) ([2]; Case B: compound added 24 h after infection, 48 h contact, 1 uM): 1.724%
- Average (percent cell viability) ([2]; Case B: compound added 24 h after infection, 48 h contact, 5 uM): −3.025%
- Average (percent cell viability) ([2]; Case C: compound added 48 h after infection, 24 h contact, 0.2 uM): 1.847%
- Average (percent cell viability) ([2]; Case C: compound added 48 h after infection, 24 h contact, 1 uM): −1.192%
- Average (percent cell viability) ([2]; Case C: compound added 48 h after infection, 24 h contact, 5 uM): −1.208%
- Average (percent cell viability) ([2]; Case D: pre-treated 6 h, then infected 72 h, 0.2 uM): 34.83%
- Average (percent cell viability) ([2]; Case D: pre-treated 6 h, then infected 72 h, 1 uM): 32.21%
- Average (percent cell viability) ([2]; Case D: pre-treated 6 h, then infected 72 h, 5 uM): 28.3%
- protection against virus-induced loss of cell viability ([2]; Case D: pre-treated 6 hours, then infected 72 hours): dose-independent protection
- protection against virus-induced loss of cell viability ([2]; Case D: pre-treated 6 hours, then infected 72 hours, listed as INS-103): inhibit SARS-CoV-2-induced loss of cell viability
- Average (percent cell viability) ([2]; Case E: pre-treated 24 h, then infected 72 h, 0.2 uM): −3.00%
- Average (percent cell viability) ([2]; Case E: pre-treated 24 h, then infected 72 h, 1.0 uM): −0.20%
- Average (percent cell viability) ([2]; Case E: pre-treated 24 h, then infected 72 h, 5.0 uM): 46.71%
- protection against virus-induced loss of cell viability ([2]; Case E: pre-treated 24 hours, then infected 72 hours, high and medium doses of INS102, high dose of INS103): dose-dependent protection
- anti-viral protection (cell viability) ([2]; Case F: 1 hour, then virus 72 hours, high dose of INS102, all doses of INS103): dose-dependent anti-viral protection
- Average (percent cell viability) ([2]; Case F: compound 1 h before infection (coinc 1 h), then virus 72 h, 0.2 uM): 9.881%
- Average (percent cell viability) ([2]; Case F: compound 1 h before infection (coinc 1 h), then virus 72 h, 1 uM): 15.82%
- Average (percent cell viability) ([2]; Case F: compound 1 h before infection (coinc 1 h), then virus 72 h, 5 uM): 19.96%
- SARS-CoV-2 viral load ([3]; Cases A-C, 5, 1, 0.2 μM): dose-dependently reduced viral load
- SARS-CoV-2 viral load ([3]; high dose 5 uM): reduced SARS-CoV-2 viral load
- SARS-CoV-2-induced cytokine and chemokine production [4]: inhibited
- viral titers in throat swabs ([5]; 3 mg/kg i.n., Day 1): reduced viral titers
- viral titer in the nasal swabs and tracheas ([5]; 3 mg/kg i.n., Day 3 post-infection): reduction of viral titer
- viral titer in lung samples ([5]; 3 mg/kg i.n., Day 3 post-infection, R4 samples): significant decrease in viral titer
- percentage of affected lung (inflammation) ([5]; 3 mg/kg i.n., day 6, virus-infected controls ˜50%): ~30%
- viral titers in throat swabs (reduction trend) ([5]; 3 mg/kg i.n., days 2 or 3): not observed
- viral titers from the nasal swabs ([5]; 3 mg/kg i.n., vs DPBS or control vehicle (DV)): trend of reduced viral titers
- lung inflammation (histopathology) ([5]; 3 mg/kg i.n., vs controls): reduction in acute ling inflammation; also recorded: mild/moderate reduction in lung inflammation
- weight loss of infected hamsters ([5]; pitavastatin 3 mg/kg i.n., D-2 to 5, statistical significance at day 4): less weight loss
- decrease in viral load, combination with remdesivir or dexamethasone vs monotherapies ([6]; FIGS. 30, 31, statin and SARS-CoV-2 (MOI 0.01) mixed 1 hour at room temperature, 24 hours post infection): enhanced
- enhanced decrease of viral load, combination vs two single agents ([6]; statin 0.2 μM + Dex 0.1 μM): —
- enhanced decrease of viral load, combination vs two single agents ([6]; statin 0.2 μM + Dex 1 μM): (e)
- enhanced decrease of viral load, combination vs two single agents ([6]; statin 0.2 μM + Dex 10 μM): —
- enhanced decrease of viral load, combination vs two single agents ([6]; statin 0.2 μM + Remde 1): (e)
- enhanced decrease of viral load, combination vs two single agents ([6]; statin 0.2 μM + Remde 10): (e)
- enhanced decrease of viral load, combination vs two single agents ([6]; statin 0.2 μM + Remde 100): (e)
- enhanced decrease of viral load, combination vs two single agents ([6]; statin 1 μM + Dex 0.1 μM): —
- enhanced decrease of viral load, combination vs two single agents ([6]; statin 1 μM + Dex 1 μM): enhancement in the decrease of viral load and E
- enhanced decrease of viral load, combination vs two single agents ([6]; statin 1 μM + Dex 10 μM): —
- enhanced decrease of viral load, combination vs two single agents ([6]; statin 1 μM + Remde 1): —
- enhanced decrease of viral load, combination vs two single agents ([6]; statin 1 μM + Remde 10): —
- enhanced decrease of viral load, combination vs two single agents ([6]; statin 1 μM + Remde 100): —
- enhanced decrease of viral load, combination vs two single agents ([6]; statin 5 μM + Dex 0.1 μM): E
- enhanced decrease of viral load, combination vs two single agents ([6]; statin 5 μM + Dex 1 μM): —
- enhanced decrease of viral load, combination vs two single agents ([6]; statin 5 μM + Dex 10 μM): —
- enhanced decrease of viral load, combination vs two single agents ([6]; statin 5 μM + Remde 1): —
- enhanced decrease of viral load, combination vs two single agents ([6]; statin 5 μM + Remde 10): —
- enhanced decrease of viral load, combination vs two single agents ([6]; statin 5 μM + Remde 100): —
- cytotoxicity [7]: not cytotoxic

— patent US20230172849A1, “INHALED STATINS FOR TREATMENT OF VIRAL RESPIRATORY DISEASES” (priority 2020, published 2023)
